Reference: US8012971B2, “Therapeutic agent for chronic obstructive pulmonary disease” (Dainippon Sumitomo Pharma Co., Ltd., priority 2005, dated 2011)

What was measured:
Format in all cases: in vivo
[1] = system: Guinea Pig Chronic Obstructive Pulmonary Disease (COPD) Model; experiment: Airway resistance (sRaw) in guinea pig COPD model (cigarette smoke exposure); details: 10 mg/kg/day oral; 1 week of cigarette smoke exposure; mean ± SEM of 8 animals
Protocol: (§1) An evaluation was carried out as follows according to a report of Kosuke MORIZUMI, Junichi FUCHIGAMI et al., 2002, The 75th Annual Meeting of the Japanese Pharmacological Society (2002) Abstract No. P-259, “Study of a chronic obstructive pulmonary disease-Effects of theophylline on respiratory function and lung function of guinea pigs in an exposure of cigarette smoke.”
(§2) Male Hartley strain guinea pigs (purchased from Japan SLC, Inc.) were taken in a cigarette exposure holder (RMH-TUBES, manufactured by Muenster Ltd.) to secure them to an exposure chamber (Flow-past type nose-only inhalation chamber, manufactured by Muenster Ltd.), and allowed to inhale cigarette smoke (Hi-Lite, manufactured by Japan Tobacco Inc.) for 60 minutes per day for 5 days in a week, totally 4 weeks using a smoking exposure equipment (Hamburg II, manufactured by Borgwaldt Technik), while the exposure was carried out for 4 days in the 4th week. • (2) Drug Administrations
(§3) Each 0.5% MC suspension of a test drug was orally administered daily in 5 ml/weight (kg) once a day for 25 days from the first day of the exposure. To a sham-exposure group and a control group was orally administered a 0.5% MC suspension in a similar manner. Any oral administrations were carried out 0.5 to 1 hours before exposures on a cigarette-smoke-exposure day or after measurements when measuring respiratory functions. A drug was not administered on the day for measurement of respiratory functions after finishing the 4th week of the exposure. • (3) Measurements of Airway Resistance
Specific airway resistances (sRaw) in guinea pigs were measured during awakening by double-flow plethysmography using general respiratory function analysis system (PULMOS-I, manufactured by M•I•P•S Corp.). Measurements were carried out before the exposure and on the day after finishing the 1st, 2nd, 3rd and 4th weeks of the exposure. Each 100 breathings of respiratory functions were individually measured, and the average values were obtained as measured values. A rate of change of airway resistances was calculated by the following equation. Rate of change of each measured week (%)=100×(a measured value on each measured date−a measured value before starting exposures of cigarette smoke)/a measured value before starting exposures of cigarette smoke

[2] = system: Guinea Pig Chronic Obstructive Pulmonary Disease (COPD) Model; experiment: Histological investigations of lung in guinea pig COPD model; details: 10 mg/kg/day for 25 days; 8 animals
Protocol: as §1, §2, §3
After collection of BALF, trachea and lung were isolated. The ligation site of the left lung was opened, injected neutral formalin buffer into trachea, bronchi and lung at the pressure of 20 cm H2O via cannula fixed on the side of the lung, and the lung tissue was extended to be fixed. According to a conventional method, tissue section samples were produced using posterior lobe of the left lung and hematoxylin-eosin (HE) stain was carried out. Any other lung tissues were stored in neutral formalin buffers. Drug efficacies of the produced tissue samples were evaluated by scoring tissue changes under the microscope. The criteria of scores were shown as follows: −: none, ±: minimal, +: mild, ++: moderate, +++: severe. Each quantification was calculated as 0, 1, 2, 3, 4.

[3] = system: Guinea Pig Chronic Obstructive Pulmonary Disease (COPD) Model; experiment: Lung functions (FRC, RV) in guinea pig COPD model; details: 10 mg/kg/day oral; after 4th week of exposure; mean ± SEM of 8 animals
Protocol: as §1, §2, §3
After measuring airway resistances in the 4th week, animals were cut open their tracheas under urethane-anesthetizing ([…], i.p.), cannulated on the side of lung, fixed by ligation, and measured residual volumes (RV) and functional residual capacities (FRC) by lung functions measuring system (Biosystem for maneuver, manufactured by Buxco Electronics).

[4] = system: Guinea Pig Chronic Obstructive Pulmonary Disease (COPD) Model; experiment: Inflammatory cells in bronchoalveolar fluid in guinea pig COPD model; details: 10 mg/kg/day oral; mean ± SEM of 8 animals
Protocol: as §1, §2, §3
After measuring lung functions, animals were exsanguinated to death and opened the thorax, ligated the left bronchial bifurcation, and then injected saline (2.5 mL) into the right lung and aspirated the same via fixed cannula on measuring lung functions repeatedly in twice (totally 5 mL), and the recovery solution was obtained as a bronchoalveolar lavage fluid (BALF). BALF was centrifuged (230×g, 4° C., for 10 minutes) to give cell pellets. The pellets were suspended in saline (0.5 mL), and to a part of the suspension was added Turk solution (manufactured by Wako Pure Chemical Industries, Ltd.) so as to dilute 10 to 20 folds. Leukocyte numbers per 0.1 μL were measured by a blood cell counting chamber and leukocyte numbers per 1 μL were calculated. Cell suspensions were prepared again, smears were prepared using about 2000 to 3000 total cell numbers, May-Grunwald-Giemsa stain was carried out, leukocyte numbers were counted under the microscope, a ratio of each leukocyte number to total leukocyte number was obtained, and each cell number per 1 μL was calculated based on the ratio. Results are shown in each cell number per 1 μL.

Cn1c(=O)c2[nH]cnc2n(C)c1=O [theophylline, Theophylline, reference compound]
Specific airway resistance (sRaw) % increase from pre value [1]: 15.02 ± 6.73%
Number of animals with grade + (mild): A. Hyperplasia, epithelial cell, bronchus [2]: 0
Number of animals with grade + (mild): B. Cellular exudation, neutrophil/eosinophil, lumen, bronchiole [2]: 0
Number of animals with grade + (mild): C. Thickening, alveolar wall [2]: 1
Number of animals with grade + (mild): D. Accumulation, foamy/macrophage-like cell, alveolus [2]: 1
Number of animals with grade + (mild): E. Cellular infiltration, neutrophil, alveolus [2]: 0
Number of animals with grade ++ (moderate): A. Hyperplasia, epithelial cell, bronchus [2]: 0
Number of animals with grade ++ (moderate): B. Cellular exudation, neutrophil/eosinophil, lumen, bronchiole [2]: 0
Number of animals with grade ++ (moderate): C. Thickening, alveolar wall [2]: 0
Number of animals with grade ++ (moderate): D. Accumulation, foamy/macrophage-like cell, alveolus [2]: 0
Number of animals with grade ++ (moderate): E. Cellular infiltration, neutrophil, alveolus [2]: 0
Number of animals with grade +++ (severe): A. Hyperplasia, epithelial cell, bronchus [2]: 0
Number of animals with grade +++ (severe): B. Cellular exudation, neutrophil/eosinophil, lumen, bronchiole [2]: 0
Number of animals with grade +++ (severe): C. Thickening, alveolar wall [2]: 0
Number of animals with grade +++ (severe): D. Accumulation, foamy/macrophage-like cell, alveolus [2]: 0
Number of animals with grade +++ (severe): E. Cellular infiltration, neutrophil, alveolus [2]: 0
Number of animals with grade ± (minimal): A. Hyperplasia, epithelial cell, bronchus [2]: 1
Number of animals with grade ± (minimal): B. Cellular exudation, neutrophil/eosinophil, lumen, bronchiole [2]: 0
Number of animals with grade ± (minimal): C. Thickening, alveolar wall [2]: 0
Number of animals with grade ± (minimal): D. Accumulation, foamy/macrophage-like cell, alveolus [2]: 1
Number of animals with grade ± (minimal): E. Cellular infiltration, neutrophil, alveolus [2]: 1
Number of animals with grade − (none): A. Hyperplasia, epithelial cell, bronchus [2]: 7
Number of animals with grade − (none): B. Cellular exudation, neutrophil/eosinophil, lumen, bronchiole [2]: 8
Number of animals with grade − (none): C. Thickening, alveolar wall [2]: 7
Number of animals with grade − (none): D. Accumulation, foamy/macrophage-like cell, alveolus [2]: 6
Number of animals with grade − (none): E. Cellular infiltration, neutrophil, alveolus [2]: 7
Functional residual capacity (FRC) [3]: 6.916 ± 0.234 mL
Residual volume (RV) [3]: 1.962 ± 0.417 mL
Cell number in BALF, Macrophage [4]: 2068 ± 362 cells/μL
Cell number in BALF, Neutrophil [4]: 1072 ± 322 ^NS cells/μL
Cell number in BALF, Total [4]: 3578 ± 583 cells/μL
